Peptide text beside a SMILES is read from it. * marks the point of attachment. Cbz = O=C(OCc1ccccc1)*; CH2F = FC*
Legend:
cathepsin B GFPspark = target: T1, cathepsin B GFPspark (Homo sapiens, UniProt P07858); assay: AbRGT FRET imaging / acceptor photobleaching, cathepsin B GFPspark in HEK-293 cells; assay type: cell-based
T1 construct: GFPspark (C); host or cells: HEK-293
Protocol: FIG. 20 depicts confocal images of HEK-293 cells in GFP, FRET and Rh channel Cathepsin B GFPspark transfected HEK-293 cells were treated with STS (1 μM) for 4 h and labelled (a) (i) with or (a) (iv) without probe 1. Cells were pre-treated with (a) (ii) Z-VAD-FMK (50 μM) or (a) (iii) E-64 (50 μM) inhibitor 1 h before the probe 1 labelling. (b) Quantification of the change in GFPS fluorescence intensity after rhodamine photobleaching in both unbleached control region and rhodamine bleached region (ROI), using acceptor photo-bleaching method. Error bar represents the s.e.m for n=10 cells (*P<0.00001). Scale bar, 10 μm. a.u., arbitrary units.
Plasmids and transient transfection: GFPspark tagged plasmids; caspase-3 GFPspark tag (Cat: HG10050-ACG), caspase-7 GFPspark tag (HG10049-ACG), caspase-8 GFPspark (HG10078-ACG), caspase-9 GFPspark (HG11151-ACG) and cathepsin B GFPspark (HG10483-ACG) were procured from Sino Biological. For transfection, cells were seeded in a 6-well plate at a density of 0.4 million cells/well. At 60-70% confluency, cells were transiently transfected for 24 h at 37° C. with 1 μg of the GFPspark tagged plasmid DNA construct mixed with 5 μL of Lipofectamine 2000 (Invitrogen) according to the manufacturer's instructions. 24 h post-transfection, cells were visualized under the GFP filter for GFPspark expression under fluorescence microscope at 10× magnification.
Labelling of active caspases in apoptotic cells with FABP: After 24 h of transfection, cells were treated with STS (1 μM) drug or TRAIL (1 μg/ml) for apoptotic induction and incubated for 2, 4, 6 and 8 h at 37° C. in a humidified atmosphere of 5% CO2/95% air. Cells were gently scraped off from the surface at the end of apoptotic induction and centrifuged at 3000 rpm for 5 min. The cell pellet was resuspended in 300 μL of fresh DMEM containing 1 μM of probe for probe 2 and incubated for additional 2 h at 37° C. in a humidified atmosphere of 5% CO2. Cells were again centrifuged at 3000 rpm for 5 mins, and the supernatant was decanted. Cells were washed with 1×PBS, thrice finally resuspended in 20 μL of 1×PBS. The cell suspension was put on a slide, and a coverslip was placed over it. It was left for air drying. Slides were then imaged for GFP, FRET and rhodamine fluorescence signals under confocal microscopy.
Inhibitor assay: Cells were pre-treated with 50 μM of Z-VAD-FMK or Q-VD-OPh or E-64 inhibitor 1 h before probe 1 labelling and incubated for 1 h at 37° C. in a humidified atmosphere of 5% CO2. Cells were gently scraped off from the surface at the end of inhibitor treatment and centrifuged at 3000 rpm for 5 min Cells were then labelled with the probe 1 as described in the previous section.
Fluorescence imaging studies, FRET procedure: Images were collected on Zeiss LSM710 confocal microscope with 25 mW argon laser using Zen10 software. The laser was tuned to lines at 488 nm (excitation laser for GFPspark) and 561 nm (excitation laser for rhodamine) Cells were examined with a 40× 1.3 NA Zeiss oil immersion objective and 2.4× zoom. Images were collected in the three channels; GFP channel, argon laser tuned at 488 nm with 2% laser intensity and fluorescence emission was collected in emission range of 490-550 nm; rhodamine channel, argon laser tuned to 561 nm laser with 2% laser intensity and fluorescence emission was collected in range 550-650 nm and FRET channel with excitation laser of GFPSPARK channel and emission range of rhodamine channel. […]

Jurkat cell lysate = assay: In-gel fluorescence assay of off-target labelling in Jurkat cells; assay type: cell-based; conditions: Jurkat cell lysate 2 μg/μL, probe 1 μM
Protocol: FIG. 5 depicts cellular off-target labelling of the probe 1 shown in Jurkat cells 2.5 million Jurkat cells were incubated with 1 μM probe 1 in the (b) presence or (c) the absence of STS (1 μM) for 6 h. Cells are incubated (a) without and (d) with the probe 1 and STS. Cells comprising labelled enzymes were lysed and analyzed by 12% SDS-PAGE followed by scanning for rhodamine fluorescence (Ex: 561 nm, Em: 605 nm) with a flat-bed laser scanner.
To rule out that the obtained FRET signal in [FIG. 2b (i)] is not because of random physical interaction between GFPspark and rhodamine dye, MCF-7 cells were transfected with a plasmid encoding for enhanced green fluorescent protein (EGFP). EGFP transfected MCF-7 cells were treated with STS (1 μM) for 4 h, labelled with the probe 1. […] In-gel fluorescence assay was also performed to validate the multiple off-targets labelling of probe 1 which has also been shown in the previous reports. […] The calculated FRET efficiency for (n=15 cells) is 35±1%. […] Caspase-3 activation was also monitored using probe 2 as fABP which is different from probe 1 in terms of peptide recognition sequence; DEVD in exchange for VAD as DEVD peptide sequence is more specific for caspases as compared to VAD. Probe 2 yielded a similar pattern of fluorescence signal in GFPspark, FRET and Rh channel as that of probe 1 [FIG. 7(a)]. The calculated FRET efficiency was 35% [FIG. 7(b)]. […]

[1] = HEK-293, inhibitor 50 μM 1 h before probe 1 labelling, STS 4 h

For “Rhodamine-VAD-fluoromethyl ketone [probe 1]”, the FRET efficiency (cathepsin B GFPspark; HEK-293, STS 1 μM 4 h, probe 1 μM 2 h, n=10 cells) was 37±1% and the “off-target labelling, bands on SDS-PAGE gel upon rhodamine excitation” value (Jurkat cell lysate) was “multiple bands”.
In the case of `COC(=O)C[C@H](NC(=O)[C@H](C)NC(=O)[C@@H](NC(=O)OCc1ccccc1)C(C)C)C(=O)CF` [Z-VAD-FMK] (Cbz-Val-Ala-Asp(OMe)-CH2F), the “effect of inhibitor on FRET signal” value (cathepsin B GFPspark; [1]) is reported as “completely abolished” and the “signal in Rh channel in presence of inhibitor” value (cathepsin B GFPspark; [1]) is reported as “less intense fluorescence signal was still retained”.
